Experimental data reported in PubChem BioAssay AID1963445 (Molecular Pharmacology Branch, DTP, NCI, 2024).

System: MCF7 complex spheroid growth, % test/control
Assay: Anticancer human tumor MCF7 cell line growth inhibition [Asc];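 also: spheroids exposed to compounds for 7 days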;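 as to viability, T/C: 100% = DMSO vehicle control wells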
Details: for IC50: curve of first compound; for viability, T/C: stronger effect = lower value
Summary of the method: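 Spheroid model: tumor line + HUVEC + hMSC. Single agents and combinations; top conc. at/near clinical Cmax (10 microM if undetermined), half-log dilutions. DMSO stocks at 800-fold test concentration.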

C=CC(=O)N1CCN(c2nc(=O)n(-c3c(C)ccnc3C(C)C)c3nc(-c4c(O)cccc4F)c(F)cc23)C(C)C1 (configuration not stated) + CNC(C)C(=O)NC1CN(S(=O)(=O)c2cccc(S(=O)(=O)N3CCC4CCC(C(=O)NC(c5ccccc5)c5ccccc5)N4C(=O)C(NC(=O)C(C)NC)C3)c2)CCC2CCC(C(=O)NC(c3ccccc3)c3ccccc3)N2C1=O
IC50 (second compound 0.00316 µM): < 31.6 nM
IC50 (second compound 0.01 µM): < 31.6 nM
IC50 (second compound 0.0316 µM): < 31.6 nM
IC50 (second compound 0.1 µM): < 31.6 nM
IC50 (second compound 0.316 µM): < 31.6 nM
IC50 (second compound 1 µM): < 31.6 nM
viability, T/C (second compound 0.00316 µM, first compound 0.0316 µM): 68.5%
viability, T/C (second compound 0.00316 µM, first compound 0.1 µM): 29%
viability, T/C (second compound 0.00316 µM, first compound 0.316 µM): 30.4%
viability, T/C (second compound 0.00316 µM, first compound 1 µM): 54.8%
viability, T/C (second compound 0.00316 µM, first compound 3.16 µM): 60.5%
viability, T/C (second compound 0.00316 µM, first compound 10 µM): 57.9%
viability, T/C (second compound 0.01 µM, first compound 0.0316 µM): 20.1%
viability, T/C (second compound 0.01 µM, first compound 0.1 µM): 15%
viability, T/C (second compound 0.01 µM, first compound 0.316 µM): 13.6%
viability, T/C (second compound 0.01 µM, first compound 1 µM): 16.9%
viability, T/C (second compound 0.01 µM, first compound 3.16 µM): 29.6%
viability, T/C (second compound 0.01 µM, first compound 10 µM): 46%
viability, T/C (second compound 0.0316 µM, first compound 0.0316 µM): 12.7%
viability, T/C (second compound 0.0316 µM, first compound 0.1 µM): 14.4%
viability, T/C (second compound 0.0316 µM, first compound 0.316 µM): 12.5%
viability, T/C (second compound 0.0316 µM, first compound 1 µM): 16.3%
viability, T/C (second compound 0.0316 µM, first compound 3.16 µM): 30.7%
viability, T/C (second compound 0.0316 µM, first compound 10 µM): 36.6%
viability, T/C (second compound 0.1 µM, first compound 0.0316 µM): 14.1%
viability, T/C (second compound 0.1 µM, first compound 0.1 µM): 12%
viability, T/C (second compound 0.1 µM, first compound 0.316 µM): 16.8%
viability, T/C (second compound 0.1 µM, first compound 1 µM): 16.2%
viability, T/C (second compound 0.1 µM, first compound 3.16 µM): 20.2%
viability, T/C (second compound 0.1 µM, first compound 10 µM): 33%
viability, T/C (second compound 0.316 µM, first compound 0.0316 µM): 14.5%
viability, T/C (second compound 0.316 µM, first compound 0.1 µM): 13.5%
viability, T/C (second compound 0.316 µM, first compound 0.316 µM): 15.2%
viability, T/C (second compound 0.316 µM, first compound 1 µM): 12.1%
viability, T/C (second compound 0.316 µM, first compound 3.16 µM): 18.6%
viability, T/C (second compound 0.316 µM, first compound 10 µM): 33.7%
viability, T/C (second compound 1 µM, first compound 0.0316 µM): 13%
viability, T/C (second compound 1 µM, first compound 0.1 µM): 12.8%
viability, T/C (second compound 1 µM, first compound 0.316 µM): 11.7%
viability, T/C (second compound 1 µM, first compound 1 µM): 14.8%
viability, T/C (second compound 1 µM, first compound 3.16 µM): 16.5%
viability, T/C (second compound 1 µM, first compound 10 µM): 28.9%
